“Also recorded” adds a separate entry of the source.
Key:
[1] = tested on: CA1 pyramidal neurons; assay: Depolarization-induced suppression of inhibition (DSI) in hippocampal slices, whole-cell voltage clamp; format: cell-based; conditions: 10 µM bath application, pre-incubated at least 30 min; mouse hippocampal slices
Source text: Experimental evidence, which supports a role of DAGL-α in short-term synaptic plasticity, has been obtained through the use of genetically engineered mice that constitutively lack DAGL-α. DSI was absent in these DAGL-α knock-out mice, but not in their DAGL-β knock-out counter parts.
Horizontal slices (300 µm) of the hippocampus were obtained from male C57BL/6 mice (Harlan, the Netherlands) aged 14-19 days postnatal. Experiments were approved by the animal welfare committee of the University of Amsterdam. […] Inhibitory postsynaptic currents (IPSCs) were evoked with a glass stimulus electrode (filled with ACSF) positioned in the stratum radiatum, close to the recorded neuron. […]
Stock solutions (10 mM) of LEI105 were made in dimethylsulfoxide (DMSO), which was diluted to the final concentration (10 µM) in ACSF. […] Control experiments were performed on neurons recorded in slices pre-incubated with and in the continuous presence of 0.1 % DMSO.
For each CA1 neuron IPSCs were evoked with 5 sec intervals during a 2-min baseline period, prior to the stimulus evoking depolarization-induced suppression of inhibition (DSI). The maximum amplitude of each IPSC was determined and the mean value of the IPCS amplitudes over this period was calculated and used to normalize the evoked synaptic response. […]

[2] = molecular target: T1, hDAGL-α (Homo sapiens, UniProt Q9Y4D2); assay: Mode of action (reversibility) experiment: size exclusion chromatography, then MB064 labeling; format: biochemical; set-up: expressed in transfected cells; conditions: pre-incubation at IC80 concentration; remaining activity visualized with MB064; n=3
T1 sequence (Q9Y4D2 1-1042): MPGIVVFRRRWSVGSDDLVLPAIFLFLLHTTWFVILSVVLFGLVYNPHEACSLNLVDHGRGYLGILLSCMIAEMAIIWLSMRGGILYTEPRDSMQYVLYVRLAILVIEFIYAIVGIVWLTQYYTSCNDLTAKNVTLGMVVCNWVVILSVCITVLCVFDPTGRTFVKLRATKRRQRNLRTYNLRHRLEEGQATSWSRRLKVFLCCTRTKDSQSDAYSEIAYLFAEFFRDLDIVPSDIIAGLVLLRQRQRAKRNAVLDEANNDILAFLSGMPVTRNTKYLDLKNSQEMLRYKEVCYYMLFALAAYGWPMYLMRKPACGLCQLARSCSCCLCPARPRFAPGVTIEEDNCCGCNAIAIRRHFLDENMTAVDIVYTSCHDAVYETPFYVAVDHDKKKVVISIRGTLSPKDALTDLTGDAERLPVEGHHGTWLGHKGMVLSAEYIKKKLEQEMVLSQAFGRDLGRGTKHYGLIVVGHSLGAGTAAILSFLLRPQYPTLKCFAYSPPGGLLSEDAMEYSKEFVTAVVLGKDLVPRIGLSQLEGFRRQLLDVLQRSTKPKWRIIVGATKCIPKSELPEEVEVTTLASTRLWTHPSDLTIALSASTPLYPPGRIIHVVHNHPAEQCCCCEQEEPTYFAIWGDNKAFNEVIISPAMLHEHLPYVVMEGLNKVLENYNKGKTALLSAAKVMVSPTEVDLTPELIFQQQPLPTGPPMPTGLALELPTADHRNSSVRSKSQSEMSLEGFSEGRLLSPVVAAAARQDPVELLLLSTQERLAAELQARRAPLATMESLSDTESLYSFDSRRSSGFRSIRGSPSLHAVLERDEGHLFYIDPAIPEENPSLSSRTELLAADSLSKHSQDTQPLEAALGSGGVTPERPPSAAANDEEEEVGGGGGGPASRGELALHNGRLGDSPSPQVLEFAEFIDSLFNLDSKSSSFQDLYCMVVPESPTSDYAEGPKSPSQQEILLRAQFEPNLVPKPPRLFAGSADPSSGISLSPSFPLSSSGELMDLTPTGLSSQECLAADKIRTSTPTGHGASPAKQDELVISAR
Procedure: To determine the mode of action (reversible versus irreversible) of the inventive compounds, an experiment in which human DAGL-α membranes were pre-incubated at the IC80 concentration of compound 25 or the irreversible DAGL inhibitor KT-109 was performed.

- recovery of DAGL-α activity after size exclusion chromatography [2]: reversibility
Structure (SMILES): Cc1ccc(-c2cnc3nc(C(=O)CCCCCc4ccccc4)oc3c2)cc1 [Compound 25, 1-(6-(p-Tolyl)oxazolo[4,5-b]pyridin-2-yl)-6-phenylhexan-1-one]
- DSI [1]: clear suppression of DSI; also recorded: DSI is reduced

Reference: EP3095787A1, “[…] ACTIVE COMPOUNDS AS DAG-LIPASE INHIBITORS” (Universiteit Leiden, priority 2015, dated 2016)
